{
  "source": "paper PMC5384777",
  "about": "“Three new C-27-carboxylated-lupane-triterpenoid derivatives from Potentilla discolor Bunge and their in vitro antitumor activities” (PLoS ONE, 2017)",
  "key": {"[1]": {"tested_on": "HepG-2", "assay": "CCK-8 cytotoxicity assay, HepG-2", "format": "cell-based, human", "details": "for IC50: Homo sapiens, read-out: Cytotoxicity (IC50) HepG-2", "experimental": "(§1) The cytotoxic effects of Compounds 1–3 were estimated in vitro against HepG-2, MCF-7 and T-84 tumor cell lines by Cell Counting Kit-8 assay. Briefly, the cells were seeded into 96-well plates in triplicate at an initial number of 5,000 cells per well and cultured at 37°C, 5% CO2 for 24h, then treated with 0, 15, 20, 25, 30 μM of samples for another 24h. Ten microliters of the kit reagent was added to each well, and 2 h after all plates were scanned by a microplate reader (Thermo Fisher Scientific) at 450 nm. Cell cytotoxicity was calculated on the basis of absorbency."}, "[2]": {"tested_on": "MCF-7", "assay": "CCK-8 cytotoxicity assay, MCF-7", "format": "cell-based", "details": "Homo sapiens, read-out: Cytotoxicity (IC50) MCF-7", "experimental": "as §1"}, "[3]": {"tested_on": "T-84", "assay": "CCK-8 cytotoxicity assay, T-84", "format": "cell-based", "details": "Homo sapiens, read-out: Cytotoxicity (IC50) T-84", "experimental": "as §1"}, "[4]": {"assay": "in vitro", "format": "cell-based", "details": "human", "experimental": "as §1"}, "[5]": {"tested_on": "HepG-2 cells", "assay": "Annexin V-FITC/propidium iodide apoptosis analysis", "format": "cell-based, human", "details": "24 h", "experimental": "The method for apoptosis analysis referred to the literature. Apoptosis was discriminated with the annexin V-FITC/propidium iodide test. Cells were seeded at 3 × 10^5/well in 10% FBS-DMEM into 6-well plates, and treated with Compound 1 with various concentrations. The cells were washed twice with cold Phosphate Buffered Saline (PBS) and then resuspended in 1 × Binding Buffer (0.1 M Hepes/NaOH (pH 7.4), 1.4 M NaCl, 25 mM CaCl2) at a concentration of 1 × 10^6 cells/mL. 100 μL of the solution (1 × 10^5 cells) was transferred to a 5 mL culture tube, and 5 μL of FITC Annexin V (BD, Pharmingen) and 5 μL of propidium iodide (PI) were added to each tube. The cells were gently vortexed and incubated at 25°C for 15 min in the dark. Then 200 μL of PBS was added to each tube. Analysis was performed with the system software (Cell Quest; BD Biosciences). The percentage of cells positive for PI and/or Annexin V-FITC was reported inside the quadrants. Lower left quadrant, viable cells (annexin V-/PI-); lower right quadrant, early apoptotic cells (annexin V+/PI-); upper right quadrant, late apoptotic cells (annexin V+/PI+); upper left quadrant, necrotic cells (annexin V-/PI+)."}, "[6]": {"tested_on": "HepG-2 cells", "assay": "Intracellular ROS assay (DCFH-DA)", "format": "cell-based, human", "details": "24 h, control 10.6%", "experimental": "HepG-2 cells were seeded into 6-well plates for 24 h and subjected to various treatments. Then, the cells were cultured in a […] medium solution containing […] DCFH-DA (Beyotime, Haimen, China) at 37°C for 30 min in dark, and then with 3 times PBS washes. Cellular fluorescence was quantified under Nikon ECLIPSETE2000-S fluorescence microscope at 485 nm excitation and 538 nm emission."}, "[7]": {"tested_on": "HepG-2 cells", "assay": "Mitochondrial membrane potential (JC-1) staining", "format": "cell-based, human", "details": "15 μM, 24 h"}, "[8]": {"tested_on": "cytochrome c", "assay": "Western blot, cytochrome c", "format": "cell-based, human", "details": "HepG-2, 0, 15 and 30 μM, 24 h", "experimental": "(§2) HepG-2 cells were collected after treatments with Compound 1 (0, 15 and 30 μM) for 24 h and then lysed in ice-cold RIPA buffer (1×PBS, 1% NP-40, 0.5% sodium deoxycholate and 0.1% SDS) which containing 100 μg/mL PMSF, 5 μg/mL Aprotinin, 5 μg/mL Leupeptin, 5 μg/mL Pepstatin and 100 μg/mL NaF. After centrifugation at 12,000 rpm for 10 min, the protein in the supernatant was quantified by the Bradford method using Multimode varioscan instrument (Thermo Fischer Scientifics). 30 μg protein per lane was applied in 12% SDS polyacrylamide gel. After electrophoresis, the protein was transferred to a polyvinylidine difluoride (PVDF) membrane (Amersham Biosciences). The membrane was blocked in TBST containing 5% blocking powder (Santacruz) at room temperature for 2 h. The membrane was washed with TBST for 5 min, and primary antibody (Bax, Bcl-2, cytochrome c, caspase-9, -3) was added and incubated at 4°C overnight (O/N). After three washes in TBST, the membrane was cultivated with corresponding horseradish peroxidase-labeled secondary antibody (1:20000) (Santa Cruz) at room temperature for 1 h. Membranes were rinsed with TBST for three times, 15 min each, and the protein blots were visualized with chemiluminescence reagent (Thermo Fischer Scientifics Ltd.). The X-ray films were developed with developer and fixed with fixer solution."}, "[9]": {"tested_on": "Bax", "assay": "Western blot, Bax", "format": "cell-based, human", "details": "HepG-2, 15 and 30 μM, 24 h, compared with control", "experimental": "as §2"}, "[10]": {"tested_on": "Bcl-2", "assay": "Western blot, Bcl-2", "format": "cell-based, human", "details": "HepG-2, 15 and 30 μM, 24 h, compared with control", "experimental": "as §2"}, "[11]": {"tested_on": "caspase-9", "assay": "Western blot, caspase-9", "format": "cell-based, human", "details": "HepG-2, 15 and 30 μM, 24 h", "experimental": "as §2"}, "[12]": {"tested_on": "caspase-3", "assay": "Western blot, caspase-3", "format": "cell-based, human", "details": "HepG-2, 15 and 30 μM, 24 h", "experimental": "as §2"}, "[13]": {"tested_on": "HepG-2 cells", "assay": "Hoechst 33258 staining", "format": "cell-based, human", "details": "15 and 30 μM, 24 h", "experimental": "HepG-2 cells grown on a sterile cover slip in 6-well plates were treated with Compound 1 for 24 h. The culture medium containing Compound was removed, and the cells were fixed in 4% paraformaldehyde for 10 min. After two PBS washes, the cells were stained with 0.5 mL of Hoechst 33258 (Beyotime, Haimen, China) for 5 min and again two PBS washes. The stained nuclei were viewed using a Nikon ECLIPSETE2000-S fluorescence microscope (OLYMPUS Co., Japan) under 350 nm excitation and 460 nm emissions."}, "[14]": {"tested_on": "HepG-2 cells", "assay": "AO/EB staining", "format": "cell-based, human", "details": "15 and 30 μM, 24 h", "experimental": "HepG-2 cells were seeded on a sterile cover slip in 6-well tissue culture plates at a concentration of 5 ×10^4 cell/mL in a volume of 2 mL. Following incubation, the medium was removed and replaced with fresh medium plus 10% fetal bovine serum and supplemented with concentrations of Compound 1 for 24 h. After the treatment period, the cover slip with monolayer cells was inverted on a grass slide with 10 μL of AO/EB stain ([…]). Fluorescence was read on a Nikon ECLIPSETE2000-S fluorescence microscope."}},
  "note": "Several values for one entry are separate records, joined by “and”; a condition that tells them apart may be missing. Identical values can stand only once. Like-named read-outs stand apart in the source and are kept apart here.",
  "data": [
    {"smiles": "CC(C=O)C1CCC2(C)CCC3(C(=O)O)C(CCC4C5(C)CCC(O)C(C)(C)C5CCC43C)C12", "note": "(stereo not drawn) [Compound 1, 3α-hydroxy-19α-hydrogen-29-aldehyde-27-lupanoic acid]", "values": [
      {"measurement": "survival rate of HepG-2", "setting": "[1]; 35 μM", "result": 9.50, "unit": "%"},
      {"measurement": "IC50", "setting": "[1]; HepG2, 24 h", "result": "17.8 ± 1.21", "unit": "µM"},
      {"measurement": "IC50", "setting": "[2]; MCF7, 24 h", "result": "30.8 ± 1.88", "unit": "µM"},
      {"measurement": "IC50", "setting": "[3]; T84, 24 h", "result": "27.9 ± 1.96", "unit": "µM"},
      {"measurement": "viability at 24 h, 35 µM", "setting": "[4]", "result": "> 90", "unit": "%"},
      {"measurement": "early apoptosis rate (annexin V+/PI-, LR)", "setting": "[5]; 15 μM", "result": 6.96, "unit": "%"},
      {"measurement": "late apoptosis rate (annexin V+/PI+, UR)", "setting": "[5]; 15 μM", "result": 4.27, "unit": "%"},
      {"measurement": "late apoptosis rate (annexin V+/PI+, UR)", "setting": "[5]; 20 μM", "result": 10.61, "unit": "%"},
      {"measurement": "early apoptosis rate (annexin V+/PI-, LR)", "setting": "[5]; 25 μM", "result": 20.05, "unit": "%"},
      {"measurement": "late apoptosis rate (annexin V+/PI+, UR)", "setting": "[5]; 25 μM", "result": 14.30, "unit": "%"},
      {"measurement": "early apoptosis rate (annexin V+/PI-, LR)", "setting": "[5]; 30 μM", "result": 23.69, "unit": "%"},
      {"measurement": "late apoptosis rate (annexin V+/PI+, UR)", "setting": "[5]; 30 μM", "result": 22.93, "unit": "%"},
      {"measurement": "early apoptosis rate (annexin V+/PI-, LR)", "setting": "[5]", "result": 16.14, "unit": "%"},
      {"measurement": "viability at 15 µM", "setting": "[5]; Homo sapiens, HepG2, 15 μM, read-out: viable cells (annexin V-/PI-, LL)", "result": 88.7, "unit": "%"},
      {"measurement": "viability at 20 µM", "setting": "[5]; Homo sapiens, HepG2, 20 μM, read-out: viable cells (annexin V-/PI-, LL)", "result": 72.9, "unit": "%"},
      {"measurement": "viability at 25 µM", "setting": "[5]; Homo sapiens, HepG2, 25 μM, read-out: viable cells (annexin V-/PI-, LL)", "result": 64.8, "unit": "%"},
      {"measurement": "viability at 30 µM", "setting": "[5]; Homo sapiens, HepG2, 30 μM, read-out: viable cells (annexin V-/PI-, LL)", "result": 52, "unit": "%"},
      {"measurement": "ROS level", "setting": "[6]; 15 μM", "result": 23.5, "unit": "%"},
      {"measurement": "ROS level", "setting": "[6]; 30 μM", "result": 46.8, "unit": "%"},
      {"measurement": "ΔΨm reduced to, of control", "setting": "[7]", "result": 69.1, "unit": "%"},
      {"measurement": "cytochrome c level in the cytosol", "setting": "[8]", "result": "gradually improved"},
      {"measurement": "Bax level", "setting": "[9]", "result": "significant increase"},
      {"measurement": "expression of Bcl-2", "setting": "[10]", "result": "inhibition on the expression"},
      {"measurement": "cleavage of caspase-9", "setting": "[11]", "result": "significantly induced cleavage"},
      {"measurement": "cleavage of caspase-3", "setting": "[12]", "result": "significantly induced cleavage"},
      {"measurement": "apoptotic cells by Hoechst 33258 staining", "setting": "[13]", "result": "apoptotic cells increased gradually in a dose-dependent manner"},
      {"measurement": "apoptosis by AO/EB staining", "setting": "[14]", "result": "able to induce apoptosis"},
      {"measurement": "melting point", "result": "200 to 201 °C and 201 to 202 °C"}
    ]},
    {"smiles": "CC(C=O)[C@@H]1CC[C@]2(C)CC[C@]3(C(=O)O)C(CCC4[C@@]5(C)CC[C@@H](O)C(C)(C)C5CC[C@]43C)C12", "note": "(stereo partly drawn) [Compound 2, 3α-hydroxy-19β-hydrogen-29-aldehyde-27-lupanoic acid]", "values": [
      {"measurement": "IC50", "setting": "[1]; HepG2, 24 h", "result": "18.2 ± 1.94", "unit": "µM"},
      {"measurement": "IC50", "setting": "[2]; MCF7, 24 h", "result": "31 ± 1.83", "unit": "µM"},
      {"measurement": "IC50", "setting": "[3]; T84, 24 h", "result": "27.9 ± 0.99", "unit": "µM"}
    ]},
    {"smiles": "CC(=O)OC1CCC2(C)C(CCC3(C)C2CCC2C4C(C(C)C=O)CCC4(C)CCC23C(=O)O)C1(C)C", "note": "(stereo not drawn) [Compound 3, 3α-acetyl-19α-hydrogen-29-aldehyde-27-lupanoic acid]", "values": [
      {"measurement": "IC50", "setting": "[1]; HepG2, 24 h", "result": "25.3 ± 1.87", "unit": "µM"},
      {"measurement": "IC50", "setting": "[2]; MCF7, 24 h", "result": "35.4 ± 1.52", "unit": "µM"},
      {"measurement": "IC50", "setting": "[3]; T84, 24 h", "result": "40.6 ± 3.64", "unit": "µM"},
      {"measurement": "melting point", "result": "200 to 201", "unit": "°C"}
    ]},
    {"smiles": "O=C1CCC[C@@H]2[C@H]3CCCN4CCC[C@@H](CN12)[C@@H]34", "note": "[Matrine, reference compound]", "values": [
      {"measurement": "IC50", "setting": "[1]; HepG2, CCK-8, 24 h treatment, n = 3", "result": "30.9 ± 2.28", "unit": "µM"},
      {"measurement": "IC50", "setting": "[2]; MCF7, CCK-8, 24 h treatment, n = 3", "result": "35.5 ± 2.92", "unit": "µM"},
      {"measurement": "IC50", "setting": "[3]; T84, CCK-8, 24 h treatment, n = 3", "result": "32.8 ± 2.95", "unit": "µM"}
    ]}
  ]
}
